Source: ChEMBL document CHEMBL5715935 (Int J Cancer, 2002)
Calls of active or inactive are those of the source. No cut-off for these calls is given here.

How the values were obtained:
[1] = test system: HCT-15; test: Cytotoxicity against p53 mutant human HCT-15 cells assessed as inhibition of cell proliferation incubated for 72 hrs by MTT assay; format: functional, cell-based; conditions: HCT-15, 72 h
[2] = test system: MES-SA/Dx5; test: Antitumor activity against human MES-SA/Dx5 cells xenografted CD1 nude mouse assessed as tumor volume at 500 mg/kg, po administered 3 times per day at 8 hrs intervals and measured on 4 day; format: functional, organism-based
[3] = test system: LoVo; test: Antitumor activity against human Lovo cells xenografted CD1 nude mouse assessed as T/C ratio at 100 mg/kg, ip administered 3 times per day at 8 hrs intervals for 5 days relative to control; format: functional; conditions: time 5 day
[4] = test system: NCI-H460; test: Cytotoxicity against p53 wild-type human NCI-H460 cells assessed as inhibition of cell proliferation incubated for 72 hrs by MTT assay; format: functional, cell-based; conditions: NCI-H460, 72 h
[5] = test system: MES-SA/Dx5; test: Antitumor activity against human MES-SA/Dx5 cells xenografted CD1 nude mouse assessed as tumor volume at 500 mg/kg, po administered 3 times per day at 8 hrs intervals and measured on 11 day; format: functional, organism-based
[6] = Cytotoxicity against human IMR-90 cells assessed as inhibition of cell proliferation incubated for 72 hrs by MTT assay; format: toxicity, cell-based
[7] = test system: ChaGo-K-1; test: Cytotoxicity against human ChaGo-K-1 cells assessed as inhibition of cell proliferation incubated for 72 hrs by MTT assay; format: functional, cell-based; conditions: ChaGo-K-1, 72 h
[8] = test system: HepG2; test: Cytotoxicity against p53 wild-type human HepG2 cells assessed as inhibition of cell proliferation incubated for 72 hrs by MTT assay; format: functional, cell-based; conditions: HepG2, 72 h
[9] = test system: LoVo; test: Antitumor activity against human Lovo cells xenografted CD1 nude mouse assessed as time for tumor growth delay at 100 mg/kg, ip administered 3 times per day at 8 hrs intervals for 5 days; format: functional; conditions: time 5 day
[10] = test system: HCT-116; test: cells; conditions: Homo sapiens, HCT-116, 72 h
[11] = test system: MES-SA/Dx5; test: Cytotoxicity against human MES-SA/Dx5 cells assessed as inhibition of cell proliferation incubated for 72 hrs by MTT assay; format: functional, cell-based; conditions: MES-SA/Dx5, 72 h
[12] = test system: LoVo; test: Induction of cell death in human LoVo cells assessed as increase in total cell numbers at 20 uM incubated upto 24 hrs by TUNEL staining based flow cytometry analysis; format: functional
[13] = test system: MES-SA/Dx5; test: Antitumor activity against human MES-SA/Dx5 cells xenografted CD1 nude mouse assessed as tumor volume at 500 mg/kg, po administered 3 times per day at 8 hrs intervals and measured on 7 day; format: functional, organism-based
[14] = test system: LoVo; test: Antitumor activity against human Lovo cells xenografted CD1 nude mouse assessed as low tumor volume at 100 mg/kg, ip administered 3 times per day at 8 hrs intervals for 32 days; format: functional, organism-based; conditions: time 32.0 day
[15] = test system: LoVo; test: Antitumor activity against human Lovo cells xenografted CD1 nude mouse assessed as low tumor volume at 100 mg/kg, ip administered 3 times per day at 8 hrs intervals for 19 days; format: functional, organism-based; conditions: time 19.0 day
[16] = test system: MES-SA/Dx5; test: Antitumor activity against human MES-SA/Dx5 cells xenografted CD1 nude mouse assessed as reduction in tumor volume at 200 mg/kg, po administered 3 times per day at 8 hrs intervals and measured upto 16 days; format: functional, organism-based; conditions: time <= 16.0 day
[17] = test system: MIA PaCa-2; test: Cytotoxicity against p53 mutant human MIA PaCa-2 cells assessed as inhibition of cell proliferation incubated for 72 hrs by MTT assay; format: functional, cell-based; conditions: MIA PaCa-2, 72 h
[18] = test system: LoVo; test: Induction of cell death in human LoVo cells assessed as accumulation of cells in the cell cycle at 20 uM incubated for 24 hrs by PI staining based flow cytometry analysis; format: functional
[19] = test system: LoVo; test: Induction of cell death in human LoVo cells assessed as total cell numbers at 20 uM incubated after 8 hrs by TUNEL staining based flow cytometry analysis; format: functional
[20] = test system: MES-SA/Dx5; test: Antitumor activity against human MES-SA/Dx5 cells xenografted CD1 nude mouse assessed as time for tumor growth delay at 500 mg/kg, po administered 3 times per day at 8 hrs intervals for 4 days; format: functional; conditions: time 4 day
[21] = target: Protein kinase C (PKC) (Homo sapiens) (UniProt O94806+P41743+P17252+P05129+Q05655+P05771+Q05513+Q02156+P24723+Q15139+Q04759); test: Inhibition of human PKC at 20 uM; format: protein assay
[22] = target: cAMP-dependent protein kinase (PKA) (Homo sapiens) (UniProt P22694+P17612+P22612); test: Inhibition of human PKA at 20 uM; format: protein assay
[23] = test system: A498; test: Cytotoxicity against p53 wild-type human A498 cells assessed as inhibition of cell proliferation incubated for 72 hrs by MTT assay; format: functional, cell-based; conditions: A498, 72 h
[24] = test system: MES-SA; test: Cytotoxicity against human MES-SA cells assessed as inhibition of cell proliferation incubated for 72 hrs by MTT assay; format: functional, cell-based
[25] = target: Mitogen-activated protein kinase 14 (Homo sapiens) (UniProt Q16539); test: Inhibition of human SAPK2A using myelin as substrate at 20 uM in presence of gamma-32P-ATP by scintillation counter analysis
Mitogen-activated protein kinase 14 (Homo sapiens), sequence (Q16539 whole entry): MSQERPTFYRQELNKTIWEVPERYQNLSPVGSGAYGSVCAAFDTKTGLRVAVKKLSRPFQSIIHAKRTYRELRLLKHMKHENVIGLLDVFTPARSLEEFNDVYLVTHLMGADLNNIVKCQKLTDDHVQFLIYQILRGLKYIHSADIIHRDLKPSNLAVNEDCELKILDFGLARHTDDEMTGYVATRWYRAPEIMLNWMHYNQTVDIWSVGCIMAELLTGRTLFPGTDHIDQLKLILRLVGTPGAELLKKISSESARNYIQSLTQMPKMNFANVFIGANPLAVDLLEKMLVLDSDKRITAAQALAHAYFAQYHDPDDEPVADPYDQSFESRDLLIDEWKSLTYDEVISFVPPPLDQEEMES

[26] = test system: LoVo; test: Antitumor activity against human Lovo cells xenografted CD1 nude mouse assessed as low tumor volume at 100 mg/kg, ip administered 3 times per day at 8 hrs intervals for 24 days; format: functional, organism-based; conditions: time 24.0 day
[27] = test system: ACHN; test: Cytotoxicity against p53 wild-type human ACHN cells assessed as inhibition of cell proliferation incubated for 72 hrs by MTT assay; format: functional, cell-based
[28] = test system: LoVo; test: Induction of cell death in human LoVo cells assessed as decrease in total cell numbers at 20 uM incubated for 48 hrs by TUNEL staining based flow cytometry analysis; format: functional
[29] = test system: LoVo; test: Induction of cell death in human LoVo cells assessed as sub-G1 phase of the cell cycle at 20 uM incubated for 24 hrs by TUNEL staining based flow cytometry analysis; format: functional
[30] = test system: LoVo; test: Induction of cell death in human LoVo cells assessed as S phase of the cell cycle at 20 uM incubated for 24 hrs by TUNEL staining based flow cytometry analysis; format: functional
[31] = test system: NCI-H69; test: Cytotoxicity against p53 mutant human NCI-H69 cells assessed as inhibition of cell proliferation incubated for 72 hrs by MTT assay; format: functional, cell-based; conditions: NCI-H69, 72 h
[32] = test system: LoVo; test: Antitumor activity against human Lovo cells xenografted CD1 nude mouse assessed as relative tumor volume at 100 mg/kg, ip administered 3 times per day at 8 hrs intervals for 5 days; format: functional; conditions: time 5 day
[33] = Cytotoxicity against human HS27 cells assessed as inhibition of cell proliferation incubated for 72 hrs by MTT assay; format: toxicity, cell-based
[34] = test system: MES-SA/Dx5; test: Antitumor activity against human MES-SA/Dx5 cells xenografted CD1 nude mouse assessed as T/C ratio at 200 mg/kg, po administered 3 times per day at 8 hrs intervals for 10 days and measured at day 11 relative to control; format: functional; conditions: time 11 day
[35] = test system: MIA PaCa-2; test: Cytotoxicity against human MIA PaCa-2 cells assessed as inhibition of cell proliferation incubated for 72 hrs by MTT assay; format: functional, cell-based; conditions: MIA PaCa-2, 72 h
[36] = test system: MES-SA/Dx5; test: Antitumor activity against human MES-SA/Dx5 cells xenografted CD1 nude mouse assessed as T/C ratio at 500 mg/kg, po administered 3 times per day at 8 hrs intervals and measured at 11 day relative to control; format: functional
[37] = test system: MIA PaCa-2; test: Cytotoxicity against p53 wild-type human MIA PaCa-2 cells assessed as inhibition of cell proliferation incubated for 72 hrs by MTT assay; format: functional, cell-based; conditions: MIA PaCa-2, 72 h
[38] = test system: LoVo; test: Induction of cell death in human LoVo cells assessed as G2/M phase of the cell cycle at 20 uM incubated for 24 hrs by TUNEL staining based flow cytometry analysis; format: functional
[39] = test system: DU-145; test: Cytotoxicity against p53 mutant human DU-145 cells assessed as inhibition of cell proliferation incubated for 72 hrs by MTT assay; format: functional, cell-based; conditions: DU-145, 72 h
[40] = test system: A549; test: Cytotoxicity against p53 wild-type human A549 cells assessed as inhibition of cell proliferation incubated for 72 hrs by MTT assay; format: functional, cell-based; conditions: A549, 72 h
[41] = test system: LoVo; test: Cytotoxicity against p53 wild-type human LoVo cells assessed as inhibition of cell proliferation incubated for 72 hrs by MTT assay; format: functional, cell-based
[42] = test system: LoVo; test: Induction of cell death in human LoVo cells assessed as G1 phase of the cell cycle at 20 uM incubated for 24 hrs by TUNEL staining based flow cytometry analysis; format: functional
[43] = test system: HT-29; test: Cytotoxicity against p53 mutant human HT-29 cells assessed as inhibition of cell proliferation incubated for 72 hrs by MTT assay; format: functional, cell-based; conditions: HT-29, 72 h
[44] = test system: HT-1376; test: Cytotoxicity against p53 mutant human HT-1376 cells assessed as inhibition of cell proliferation incubated for 72 hrs by MTT assay; format: functional, cell-based; conditions: HT-1376, 72 h
[45] = test system: LoVo; test: Antitumor activity against human Lovo cells xenografted CD1 nude mouse assessed as reduction in tumor volume at 100 mg/kg, ip administered 3 times per day at 8 hrs intervals for 5 days relative to control; format: functional; design: scale not given: the % may be the effect or the level left; conditions: time 5 day
[46] = test system: LoVo; test: Antitumor activity against human Lovo cells xenografted CD1 nude mouse assessed as low tumor volume at 100 mg/kg, ip administered 3 times per day at 8 hrs intervals for 16 days; format: functional, organism-based; conditions: time 16.0 day
[47] = test system: MES-SA/Dx5; test: Antitumor activity against human MES-SA/Dx5 cells xenografted CD1 nude mouse assessed as time for tumor growth delay at 200 mg/kg, po administered 3 times per day at 8 hrs intervals for 10 days; format: functional; conditions: time 10 day
[48] = test system: LoVo; test: Induction of cell death in human LoVo cells assessed as increase in the number of cells with a sub-G1 DNA content at 20 uM incubated for 24 hrs by PI staining based flow cytometry analysis; format: functional

With `CC[C@H](CO)Nc1nc(NCc2ccccc2)c2ncn(C(C)C)c2n1` [SELICICLIB] the IC50 [1] was 18.3 µM, the Activity [2] was “Active” and the T/C [3] was 58.3%. The IC50 [4] was 13.1 µM, the Activity [5] was “Active” and the IC50 at 72 h [6] was greater than 100 µM. For the same compound, the IC50 [7] was 30.2 µM, the IC50 [8] was 11.3 µM and the Time [9] was 1.4 days. The IC50 [10] was 10.7 µM, the IC50 [11] was 7.9 µM and the Activity [12] was “Active”. The Activity [13] was “Active”, the Activity [14] was “Active” and the Activity [15] was “Active”. For the same compound, the Activity [16] was “inactive”, the IC50 [17] was 13.9 µM and the Activity [18] was “inactive”. For the same compound, the Activity [19] was “Active”, the Time [20] was 1.7 days and the inhibition [21] was “inactive”. The inhibition [22] was “inactive”, the IC50 [23] was 13.2 µM and the IC50 [24] was 11.9 µM. For the same compound, the inhibition [25] was “inactive”, the Activity [26] was “Active” and the IC50 [27] was 11.9 µM. The Activity [28] was “Active”, the Activity [29] was “Active” and the Activity [30] was “Active”. It also gave an IC50 [31] of 26 µM, an Activity [32] of 4.8 and an IC50 at 72 h [33] of 22.2 µM. The Activity [34] was 85.7%, the IC50 [35] was 15.2 µM and the T/C [36] was 47.3%. For the same compound, the IC50 [37] was 12 µM, the Activity [38] was “Active” and the IC50 [39] was 18.8 µM. The IC50 [40] was 15.9 µM, the IC50 [41] was 9.3 µM and the Activity [42] was “Active”. It also gave an IC50 [43] of 14.6 µM, an IC50 [44] of 18.4 µM and an Activity [45] of 44.8%. For the same compound, the Activity [46] was “Active”, the Time [47] was 1.3 days and the Activity [48] was “Active”.
